Assay results from article PMC9468151, “Identification of a binding site on soluble RANKL that can be targeted to inhibit soluble RANK-RANKL interactions and treat osteoporosis” (Nature Communications, 2022).
Values joined by “and” are separate entries in the source; they are usually repeats but may differ in a detail not shown here. Identical values can stand only once. “Also recorded” adds a separate entry of the source.

What was measured:
T lymphocyte = T lymphocyte cell proliferation assay (CFSE, CD4+/CD8+ flow cytometry); format: cell-based, human
Experimental: T lymphocyte cell proliferation assay was performed according to a reported method[58] with some modification. Briefly, 5 × 10^6 cells /mL cells were stained 2.5 μM CFSE (Tonbo Biosciences) and incubated at 37 °C for 12 min. Then washed and discarded the supernatant and adjusted the CFSE stained cell to 1.75 × 10^6 cells /mL. Cells were diluted in 1640 completed medium containing 5 μg/mL anti-CD3 antibody (Tonbo Biosciences) to 3 × 10^5 cells/mL and seed in a 96-well plate or 24-well plate that pre-packaged 0.4 μg/well anti-CD28 antibody and 1.6 μg anti-CD28 antibody (24-well) (Tonbo Biosciences). Cells were then cultured for 3 days, 9 days or 12 days. Subsequently, the proportion of CD4^+ and CD8^+ cells was determined by flow cytometry (Beckman Coulter, FC500) according to manufacturer’s instruction of PE-Cyanine7 anti-Human CD8a and PE anti-Human CD4 antibodies (Tonbo Biosciences). Data analyzing was performed by using CXP software (Beckman Coulter, Supplementary Fig. 8).

[1] = test system: sRANKL induced osteoclast differentiation; experiment: In vitro anti-osteoclastogenesis activity determination (TRAP staining); format: cell-based, mouse; conditions: BMMs, M-CSF + 100 ng/mL sRANKL, 5 days, TRAP staining
Experimental: Mouse osteoclasts were cultured according to the previously reported protocols. BMMs were plated in 96-well plates at a density of 6 × 10^3 cells/well with complete medium containing 10 ng/mL M-CSF. The following day, cells were then stimulated with 100 ng/mL sRANKL in the presence or absence of compounds with different concentrations every 2 days until osteoclasts formed. In order to calculate IC50, we set 9 concentrations for each compound and untreated and non-sRANKL unstimulating group as controls, each with triplicated repeated wells. After 5 days, cells were fixed with 4% paraformaldehyde and then applied TRAP-staining to identify osteoclasts by using the TRAP-staining kit. Osteoclasts number (OC No.) in each well was counted and the percentage of inhibition ratio was calculated as follows:1 OCinhibitoryratio%=100−OCNo.treated−OCNo.unstimulating/OCNo.untreated−OCNo.unstimulating×100%
The dosages and their correspondent osteoclastogenesis inhibitory activity curve and IC50 value were conducted by using Nonlinear regression (curve fit) analytic procedure in GraphPad Prism 8. Photographs of individual wells were taken using Leica microscope.

[2] = Cancer donor 1, 3 day, Denosumab 2
[3] = Cancer donor 1, 3 day, Denosumab 10
[4] = Cancer donor 1, 3 day, Denosumab 50
[5] = Cancer donor 1, 3 day, Denosumab 100
[6] = Healthy donor 1, 3 day, Denosumab 2
[7] = Healthy donor 1, 3 day, Denosumab 10
[8] = Healthy donor 1, 3 day, Denosumab 50
[9] = Healthy donor 1, 3 day, Denosumab 100
[10] = Healthy donor 1, 12 day, Denosumab 2
[11] = Healthy donor 1, 12 day, Denosumab 10
[12] = Healthy donor 1, 12 day, Denosumab 50
[13] = Healthy donor 1, 12 day, Denosumab 100
[14] = Healthy donor 2, 9 day, Denosumab 2
[15] = Healthy donor 2, 9 day, Denosumab 10
[16] = Healthy donor 2, 9 day, Denosumab 50
[17] = Healthy donor 2, 9 day, Denosumab 100
[18] = cancer patient donors 1, 3 day, Denosumab conc. 2
[19] = cancer patient donors 1, 3 day, Denosumab conc. 10
[20] = cancer patient donors 1, 3 day, Denosumab conc. 50
[21] = cancer patient donors 1, 3 day, Denosumab conc. 100
[22] = healthy donors 2, 9 day, Denosumab conc. 2
[23] = healthy donors 2, 9 day, Denosumab conc. 10
[24] = healthy donors 2, 9 day, Denosumab conc. 50
[25] = healthy donors 2, 9 day, Denosumab conc. 100

Denosumab: human monoclonal antibody targeting RANKL [reference compound]
CD8+ cells in total cells (%) (T lymphocyte; [2]): 12.95% and 18.88% and 19.88%
CD8+cells in CFSE-cells (%) (T lymphocyte; [2]): 47.83% and 52.36% and 55.86%
CFSE- cells in total cells (%) (T lymphocyte; [2]): 7.68% and 12.7% and 13.49%
CD8+ cells in total cells (%) (T lymphocyte; [3]): 19.52% and 20.76% and 18.73% and 17.85%
CD8+cells in CFSE-cells (%) (T lymphocyte; [3]): 58.3% and 60.56% and 50.89% and 60.05%
CFSE- cells in total cells (%) (T lymphocyte; [3]): 14.67% and 15.58% and 13.42% and 13.19%
CD8+ cells in total cells (%) (T lymphocyte; [4]): 26.97% and 21.55% and 18.02% and 16.53%
CD8+cells in CFSE-cells (%) (T lymphocyte; [4]): 60.83% and 60.63% and 65.78% and 55.26%
CFSE- cells in total cells (%) (T lymphocyte; [4]): 18.07% and 17.65% and 14.37% and 12.07%
CD8+ cells in total cells (%) (T lymphocyte; [5]): 18.07% and 12.62% and 9.75% and 19.7%
CD8+cells in CFSE-cells (%) (T lymphocyte; [5]): 58.14% and 64.44% and 57.46% and 66.87%
CFSE- cells in total cells (%) (T lymphocyte; [5]): 13.67% and 8.82% and 5.94% and 14.04%
CD4+cells in total cells (%) (T lymphocyte; [6]): 69.69% and 70.06% and 70.95% and 70.86%
CD8+ cells in total cells (%) (T lymphocyte; [6]): 18.8% and 18.88% and 18.25% and 19.29%
CD8+cells in CFSE-cells (%) (T lymphocyte; [6]): 26.34% and 25.38% and 32.57% and 36.89%
CFSE- cells in total cells (%) (T lymphocyte; [6]): 26.84% and 28.54% and 29.29% and 24.77%
CD4+cells in total cells (%) (T lymphocyte; [7]): 65.55% and 67.08% and 69.8% and 70.72%
CD8+ cells in total cells (%) (T lymphocyte; [7]): 12.83% and 18.37% and 19.41% and 19.55%
CD8+cells in CFSE-cells (%) (T lymphocyte; [7]): 30.74% and 26.84% and 36.74% and 30.32%
CFSE- cells in total cells (%) (T lymphocyte; [7]): 20.59% and 18.28% and 26.59% and 31.48%
CD4+cells in total cells (%) (T lymphocyte; [8]): 67.05% and 68.05% and 69.94%
CD8+ cells in total cells (%) (T lymphocyte; [8]): 11.73% and 19.23% and 18.46% and 17.76%
CD8+cells in CFSE-cells (%) (T lymphocyte; [8]): 24.41% and 28.83% and 32.28% and 24%
CFSE- cells in total cells (%) (T lymphocyte; [8]): 15.36% and 19.21% and 18.01% and 22.17%
CD4+cells in total cells (%) (T lymphocyte; [9]): 70.71% and 71.03% and 67.42% and 69.45%
CD8+ cells in total cells (%) (T lymphocyte; [9]): 18.51% and 19.03% and 18%
CD8+cells in CFSE-cells (%) (T lymphocyte; [9]): 34.99% and 31.86% and 30.15% and 27.25%
CFSE- cells in total cells (%) (T lymphocyte; [9]): 23.52% and 25.01% and 20.72% and 24.32%
CD4+cells in total cells (%) (T lymphocyte; [10]): 26.49% and 25.92% and 26.52% and 28.25%
CD8+ cells in total cells (%) (T lymphocyte; [10]): 16.3% and 19.12% and 15.44% and 15.28%
CD8+cells in CFSE-cells (%) (T lymphocyte; [10]): 73.19% and 72% and 71.55% and 68.56%
CFSE- cells in total cells (%) (T lymphocyte; [10]): 14.97% and 17.18% and 14.07% and 13.53%
CD4+cells in total cells (%) (T lymphocyte; [11]): 25.95% and 25.52% and 26.76% and 24.64%
CD8+ cells in total cells (%) (T lymphocyte; [11]): 15.64% and 17.84% and 16.84% and 18.91%
CD8+cells in CFSE-cells (%) (T lymphocyte; [11]): 74.4% and 67.54% and 67.82% and 72.96%
CFSE- cells in total cells (%) (T lymphocyte; [11]): 15.13% and 15.31% and 14.05% and 17.18%
CD4+cells in total cells (%) (T lymphocyte; [12]): 24.55% and 27.22% and 26.53% and 28.64%
CD8+ cells in total cells (%) (T lymphocyte; [12]): 20.42% and 18.55% and 17.94% and 15.51%
CD8+cells in CFSE-cells (%) (T lymphocyte; [12]): 76.93% and 74.3% and 73% and 74.26%
CFSE- cells in total cells (%) (T lymphocyte; [12]): 19.56% and 16.94% and 16.16% and 14.84%
CD4+cells in total cells (%) (T lymphocyte; [13]): 25.87% and 24.55% and 27.13% and 25.36%
CD8+ cells in total cells (%) (T lymphocyte; [13]): 17.35% and 16.6% and 14.41% and 19%
CD8+cells in CFSE-cells (%) (T lymphocyte; [13]): 75.89% and 76.07% and 78.18% and 58.5%
CFSE- cells in total cells (%) (T lymphocyte; [13]): 16.6% and 18.55% and 14.85% and 14.03%
CD8+ cells in total cells (%) (T lymphocyte; [14]): 62.1% and 50.03% and 44.09%
CD8+cells in CFSE-cells (%) (T lymphocyte; [14]): 46.7% and 62.97% and 61.41%
CFSE- cells in total cells (%) (T lymphocyte; [14]): 29.5% and 51.59% and 42.27%
CD8+cells in CFSE-cells (%) (T lymphocyte; [15]): 52.77% and 43.74% and 55.57%
CFSE- cells in total cells (%) (T lymphocyte; [15]): 41.17% and 28.01% and 37.92%
CD8+ cells in total cells (%) (T lymphocyte; [16]): 20.69% and 38.29% and 38.09%
CD8+cells in CFSE-cells (%) (T lymphocyte; [16]): 53.31% and 54.69% and 48.69%
CFSE- cells in total cells (%) (T lymphocyte; [16]): 29.61% and 31.67% and 28.7%
CD8+ cells in total cells (%) (T lymphocyte; [17]): 58.4% and 50.02% and 56.13%
CD8+cells in CFSE-cells (%) (T lymphocyte; [17]): 75.13% and 70.69% and 68.35%
CFSE- cells in total cells (%) (T lymphocyte; [17]): 59.44% and 46.67% and 44.15%
CD4+cells in total cells (%) (T lymphocyte; [18]): 2.77% and 5.83% and 5.1%
CFSE-CD4+cells in CFSE-cells (%) (T lymphocyte; [18]): 6.78% and 7.64% and 7.28%
CD4+cells in total cells (%) (T lymphocyte; [19]): 4.94% and 4.86% and 1.84% and 3.11%
CFSE-CD4+cells in CFSE-cells (%) (T lymphocyte; [19]): 6.34% and 3.24% and 8% and 8.92%
CD4+cells in total cells (%) (T lymphocyte; [20]): 1.87% and 6.24% and 6.17% and 6.5%
CFSE-CD4+cells in CFSE-cells (%) (T lymphocyte; [20]): 4% and 0.79% and 1.56% and 4.58%
CD4+cells in total cells (%) (T lymphocyte; [21]): 9.55% and 7.15% and 9.97% and 6.77%
CFSE-CD4+cells in CFSE-cells (%) (T lymphocyte; [21]): 4% and 0% and 0.9%
CD4+CFSE− cell after treatment (T lymphocyte; cancer patient, Fig. 7c, control 5.32 ± 0.76%): 1.33 ± 2.31%
total T cells isolated from cancer patient after treatment (T lymphocyte; cancer patient, Fig. 7c, control 14.51 ± 3.71%): 3.88 ± 1.77%
CD4+cells in total cells (%) (T lymphocyte; healthy donors 1, 3 day, Denosumab conc. 2): 72.37% and 73.3% and 66.26% and 61.44%
CD4+cells in total cells (%) (T lymphocyte; healthy donors 1, 3 day, Denosumab conc. 10): 65.16% and 71.53% and 62.16% and 68.6%
CD4+cells in total cells (%) (T lymphocyte; healthy donors 1, 3 day, Denosumab conc. 50): 73.23% and 69.38% and 66.17% and 74.19%
CD4+cells in total cells (%) (T lymphocyte; healthy donors 1, 3 day, Denosumab conc. 100): 64% and 66.67% and 68.46% and 71.67%
CFSE-CD4+cells in CFSE-cells (%) (T lymphocyte; healthy donors 1, 12 day, Denosumab conc. 2): 9.68% and 10.89% and 9.04% and 9.57%
CFSE-CD4+cells in CFSE-cells (%) (T lymphocyte; healthy donors 1, 12 day, Denosumab conc. 10): 10.52% and 10.85% and 8.44% and 10.78%
CFSE-CD4+cells in CFSE-cells (%) (T lymphocyte; healthy donors 1, 12 day, Denosumab conc. 50): 8.71% and 10.48% and 9.97% and 9.81%
CFSE-CD4+cells in CFSE-cells (%) (T lymphocyte; healthy donors 1, 12 day, Denosumab conc. 100): 9.75% and 11.53% and 10.58%
CD4+cells in total cells (%) (T lymphocyte; [22]): 17% and 17.01% and 14.7%
CFSE-CD4+cells in CFSE-cells (%) (T lymphocyte; [22]): 42.1% and 26.91% and 24.13%
CD4+cells in total cells (%) (T lymphocyte; [23]): 13.52% and 17.3% and 15.5%
CFSE-CD4+cells in CFSE-cells (%) (T lymphocyte; [23]): 24.29% and 47.85% and 28.82%
CD4+cells in total cells (%) (T lymphocyte; [24]): 12.4% and 14.63% and 15.19%
CFSE-CD4+cells in CFSE-cells (%) (T lymphocyte; [24]): 19.21% and 28.79% and 29.22%
CD4+cells in total cells (%) (T lymphocyte; [25]): 14.9% and 10.87% and 12.57%
CFSE-CD4+cells in CFSE-cells (%) (T lymphocyte; [25]): 20.36% and 16.35% and 22.15%
total CD4+ and CD4+CFSE− T cell (T lymphocyte; human 2, 9 days, 100 μg/mL): dropped by nearly half
lymphocyte proliferation (T lymphocyte; human lymphocytes, in words): notably inhibits lymphocyte proliferation at high concentration

CCOC(=O)c1sc(NC(=O)C(=NNc2cc(C(=O)O)ccc2C(=O)O)C(C)=O)nc1C [S3-04]
OC IC50 (anti-osteoclastogenesis activity) [1]: Inactive; also recorded: lose osetoclastogenesis inhibitory activities
